Literature values, collected in patent publication US6432971B1, “Method of prevention of prostatic carcinoma with 17β-N-monosubstituted-carbamoyl-4-aza-5α-androst-1-en-3-ones” (Merck & Co., Inc., priority 1991, dated 2002).

How the values were obtained:
[1] = system: female hamster flank organ; conditions: for effect on flank organ response elicited by 5α-dihydrotestosterone: concomitant administration with topical 5α-dihydrotestosterone; for effect on flank organ response elicited by testosterone: concomitant administration with topical testosterone
[2] = system: testosterone-5α-reductase; conditions: in vitro; Voigt and Hsia, Endocrinology 92, 1216 (1973)

| SMILES | effect on flank organ response elicited by 5α-dihydrotestosterone [1] | effect on flank organ response elicited by testosterone [1] | inhibition of testosterone-5α-reductase [2] |
| --- | --- | --- | --- |
| C[C@]12CC[C@H]3[C@@H](CCC4=CC(=O)CC[C@@]43C)[C@@H]1CC[C@@H]2C(=O)O [4-androsten-3-one-17β-carboxylic acid] | did not inhibit the response elicited by 5α-dihydrotestosterone | inhibited the response elicited by testosterone | active inhibitors of testosterone-5α-reductase in vitro |
| COC(=O)[C@H]1CC[C@H]2[C@@H]3CCC4=CC(=O)CC[C@]4(C)[C@H]3CC[C@]12C [methyl 4-androsten-3-one-17β-carboxylate] | did not inhibit the response elicited by 5α-dihydrotestosterone | inhibited the response elicited by testosterone | active inhibitors of testosterone-5α-reductase in vitro |
